Legend:
Wnt/β-catenin pathway [1] = experiment: Western blot of Wnt/β-catenin pathway activation in ATDC5 micromasses; assay type: cell-based, mouse; settings: PEP16 at 100 and 300 ng/mL; day 1, 7, 14, 21; during chondrogenesis
Protocol: (§1) Mouse chondrogenic ATDC5 cells (cartilage-specific chondrogenic strain) were cultured until confluent in maintenance medium containing 1:1 Dulbecco's modified Eagle's medium (DMEM): Ham's F-12 mix (Gibco) supplemented with 1% antibiotic (AB, Penicillin-Streptomycin, Gibco), 5% fetal bovine serum (FBS) (Gibco) and enriched with […] human transferrin (Sigma) and 30 nM sodium selenite (Sigma). Cells were trypsinized, washed and resuspended at 2.10^7 cells/mL in a chondrogenic medium made of maintenance medium enriched by 1× of ITS premix (resulting in 10 μg/mL insulin, 10 μg/mL human transferrin and 30 nM sodium selenite) (Life technologies). One droplet of cell suspension (10 μL) was placed at the center of each well of a 24-well plate. Cells were allowed to adhere for 2 h at 37° C., followed by addition of 500 μL chondrogenic medium supplemented. […] After 14 days, induction of hypertrophic differentiation and mineralization was induced by the mineralization medium made of α-MEM medium (Gibco) containing 1% AB, 5% FBS, 5 μg/ml human transferrin, 1× of ITS premix, 50 μg/ml ascorbic acid-2-phosphate (AA) (Sigma) and 10 mM β-glycerophosphate (BGP) (Sigma). […] Micromasses were collected at time points 1, 7, 14 21 and 28 days. Each time point was processed in three technical replicates. The medium was changed every other day. […]

CamKII pathway = experiment: Western blot of CamKII pathway activation in ATDC5 micromasses; assay type: cell-based, mouse; settings: PEP16 at 100 and 300 ng/mL; pre-mineralization phase of chondrogenesis (D14)
Protocol: as §1

[2] = system: 7×TCF/LEF response elements (Super 8×TOPFlash reporter); experiment: Promoter activation assay, Super 8×TOPFlash luciferase reporter in ATDC5 cells stimulated with Wnt3a; assay type: cell-based, mouse; settings: peptide at 300 ng/ml; 10 or 100 ng/mL recombinant Wnt3a; 24 h
Protocol: (§4) Results were normalized by-cotransfecting each of the above plasmid with the tyrosine kinase-renilla luciferase plasmid (Promega). Transfections were carried out using the Dharmafect kb transfection reagent (Fisher Scientific). Briefly, reporter plasmids and transfection reagent were diluted in serum-free medium, and then the diluted Dharmafect kb was added to the plasmids for an incubation time of 10 minutes at room temperature. During that time, cells were rinsed with PBS and were placed in fresh maintenance medium. When incubation was over, the mixture of transfection reagent-plasmids was dispensed in each well. Stimulations (with Wnt3a and/or PEP16 and/or PEP16bis) were carried out the next day.

[3] = system: mouse articular chondrocytes; experiment: qRT-PCR relative expression of genes of interest in mouse articular chondrocytes; assay type: cell-based
Protocol: Mouse articular chondrocyte (MACs) were isolated from femoral heads by enzymatic digestion of whole femoral head caps. Samples were washed three times in 1% AB/phosphate buffered saline (PBS) and incubated with 2 mg/ml pronase (Roche)/DMEM-F12 at 37° C. for 1 h at slow rotation 100 rpm followed by a 3 h incubation with 1.5 mg/ml collagenase B (Roche)/DMEM-F12 at 37° C. Cells were seeded at 1×10^6 cells/[…], and cultured for 7 to 14 days in growth medium DMEM-F12, containing 1% AB (Gibco), 10% FBS (Gibco) and 5% L-glutamine (Thermoscientific). Passage 1 cells were utilized for the experiments. The culture supernatants were then harvested in order to perform MMP13 enzymatic activity assay. The evaluation of the expression of genes of interest included articular chondrocyte markers (aggrecan, type 2 collagen (col2a1)), YAP/TAZ target genes (ankrd) and pro-catabolic enzyme involved in the pathophysiology of OA (mmp3).
(§2) Total RNA was isolated using the Nucleospin RNA II kit (Macherey-Nagel) and reverse-transcribed using the MMLV reverse transcriptase (Thermo Fisher Scientific) following the manufacturers' instructions. The iTaq SYBR green qPCR master mix (BioRad) was used to assess the mRNA expression of target genes of interest. Primer sequences can be provided upon request. The following PCR conditions were used: 1 minute at 95° C., 40 cycles of 15 sec of denaturation at 95° C., followed by 1 minute of annealing-elongation at 60° C. Melting curve analysis was performed to determine the amplification of the specific product. Results were expressed using the comparative threshold method and were normalized to housekeeping gene PPIA (Peptidylprolyl Isomerase A) mRNA level for ATDC5 cells and MACs, or normalized to housekeeping gene S29 (ribosomal protein S29) mRNA level for MC3T3-E1 cells. The Via7 real-time PCR system (Thermo Fisher Scientific) was used for qRT-PCR measurements.

MC3T3-E1 cells [4] = experiment: qRT-PCR relative expression of genes of interest in MC3T3-E1 cells (osteogenic differentiation); assay type: cell-based, mouse
Text: (§3) Each time point was processed in three technical replicates. The medium was changed every two days.
as §2
Briefly, MC3T3-E1 cells were differentiated during 14 days as mentioned previously. […] In the same experiment, we also used MC3T3-E1 cells stably overexpressing the NTN domain. Treated cells and NTN overexpressing cells were compared to control cells (CTL).
RNA was isolated and qPCR was performed for ANKRD (YAP/TAZ target gene, indicator of the pathway activity) (FIG. 21).

Wnt/β-catenin pathway [5] = settings: PEP16 at 300 or 1000 ng/mL; day 7, 14, 21; during osteogenesis
Protocol: Cells were maintained in a humidified atmosphere of 5% CO2 at 37° C.

MC3T3-E1 cells [6] = experiment: Quantification of mineralization (Alizarin Red) in MC3T3-E1 cells; assay type: cell-based, mouse; settings: PEP16 at 100 or 300 ng/mL; day 21; absorbance 405 nm
Protocol: as §3
Cells were washed with PBS and fixed with 95% ice-cold ethanol for 30 min at 4° C. for staining. After washing with distilled water, cells were stained with Alizarin Red staining (1% Alizarin Red S (Sigma)), washed three times with distilled water to remove unbound staining and air-dried. Quantification of the staining was performed by dissolving the mineral content in 800 μl of 10% acetic acid for 30 minutes. Then, the wells were scraped, the content of each well was harvested in a separate tube and vortexed for 30 seconds. Each tube was heated at 85° C. for 10 minutes, then put on ice for 5 minutes. Finally, tubes were centriguated at 13000 rpm for 15 minutes, the liquid phase was harvested and mixed with 100 μl of 10% ammonium hydroxide. Absorbance was measured at 405 nm with a spectrophotometer (Varioskan Flash, Thermo Fisher Scientific).
The mineralization level was evaluated by a biochemical assay as previously described after 21 days of differentiation culture. Results are representative of 3 experiments.

[7] = system: 8×YAP response elements (8×GTIIC reporter); settings: PEP16 at 30 ng/ml; 24 h
Protocol: as §4

alkaline phosphatase = settings: 300 ng/ml, 1000 ng/ml; day 1 and day 21; vs CTL
Protocol: MC3T3-E1 cells were differentiated during 21 days as mentioned previously. […] Treated cells were compared to cells without any peptide stimulation (CTL).
We also assessed the specific alkaline phosphatase activity (μmol de para-nitrophenol/min/mg of protein). To that goal, we lysed the cells using 300 μL of a buffer containing 0.2 M Tris-Base, 1.6 mM MgCl2 pH 8.1 and 1% Triton X-100. Samples were then placed into tubes and put on ice for 30 min. During this time, we alternated periods of 30 sec vortex and 5 min on ice. Then, samples were sonicated, and centrifugated for 15 min at 13 000 g, 4° C. Supernatant was collected, and total protein concentration was evaluated using bicinchoninic acid assay.
Alkaline phosphatase activity was measured by placing the harvested supernatants in para-nitrophenyl phosphate (pNPP) solution. The alkaline phosphatase will cleave this substrate and generate para-nitrophenol (pNP).
A solution of 4 mg/mL of pNPP is prepared in buffer A (0.1 M glycine pH 10.5, 0.11% (m/v) Zinc acetate and 0.011% magnesium chloride (m/v)). […]
Absorbance is read at 410 nm on a Varioskan Flash apparatus. Alkaline phosphatase activity is calculated based on the standard curve (equation A410=a×quantity(ρNP)+b) with the following formula: activity=((A(410 nm)−b)×reaction volume)/(a×sample volume×reaction time)

[8] = PEP16 at 300 ng/mL and wnt3a at 100 ng/mL, 24 and 48 h
[9] = PEP16 at 100 or 300 ng/mL, day 7, 14, 21, normalized with S29

## DRLGKKVKRWDMKLRH (PEP16)
Wnt/β-catenin pathway [1]
  Wnt/β-catenin pathway activation (active protein form over total protein form): reduced in the activation of the Wnt/β-catenin pathway
CamKII pathway
  CamKII pathway activation (P-CamKII over total): increased the activation of the CamKII pathway
[2]
  activity of the canonical Wnt pathway in the Super TOPFlash luciferase reporter system (Firefly/renilla ratio): significantly reduce the activity
[3]; 300 ng/mL, 12 h of stimulation
  expression of Ankrd, a target gene of the Hippo/YAP/TAZ pathway: capable of reducing the expression
[3]; 300 ng/mL, wnt3a at 100, 50, 30 ng/mL, 24 h of stimulation
  expression of MMP3 induced by Wnt3a: counteract the inductive effects of Wnt3a
[3]; [8]
  relative expression level of aggrecan (decrease induced by Wnt3a): had a tendancy to counteract
  relative expression level of col2a1 (type 2 collagen; decrease induced by Wnt3a): had a tendancy to counteract
[3]; PEP16 with Wnt3a, data not shown
  increase of NGF induced by Wnt3a: had a tendancy to counteract
MC3T3-E1 cells [4]; PEP16 at 300 ng/ml or cells stably overexpressing the NTN domain, D1 and D14, vs control cells
  expression of ANKRD (YAP/TAZ target gene): managed to do so
MC3T3-E1 cells [4]; [9]
  relative expression level of osteocalcin: favoured the induction of the expression
  relative expression level of osterix: favoured the induction of the expression
Wnt/β-catenin pathway [5]
  Wnt/β-catenin pathway activation: reduced in the activation
MC3T3-E1 cells [6]
  mineralization quantification (mineral content in the extracellular matrix): significantly increased the accumulation of mineral content
[7]
  activity of the Hippo/YAP/TAZ pathway in a luciferase-type reporter system (Firefly/renilla ratio): significantly reduced the activity
Alkaline phosphatase
  specific alkaline phosphatase activity: tended to increase the alkaline phosphatase activity
